Where a name gives a salt, the structure may show the parent alone.

A short description of series [1]: in vivo. The conditions noted are these: both, Göttingen, minipig, plasma, topical or ocular.
Description: (§1) Bioanalytical Sample Collection Blood samples (approximately 2 mL) are collected from all surviving animals via the abdominal vena cava through the thoracic inlet for determination of the plasma concentrations of adapalene and minocycline (see Tables 5 and 6). The animals were not fasted prior to blood collection, with the exception of the intervals that coincided with fasting for clinical pathology collections.
(§2) Blood samples are collected in tubes containing K2EDTA and placed on wet ice and centrifuged under refrigerated conditions. The resulting plasma is divided into 3 aliquots (100 μL in Aliquot 1 [minocycline], 500 μL in Aliquot 2 [adapalene], and any remaining plasma in Aliquot 3) in pre-labeled cryovials. All aliquots are stored frozen at −60° C. to −90° C.
(§3) The TK parameters are determined for adapalene and minocycline from individual concentration-time data by the Testing Facility.
The nature of series [2]: Toxicokinetics after daily dermal application.
Description: as §1, §2, §3

As a reminder, the Cmax is the maximum level reached in the sampled fluid or tissue. As a reminder, the Tmax is the time from dosing to the highest level. As to `CN(C)c1ccc(O)c2c1C[C@H]1C[C@H]3[C@H](N(C)C)C(O)=C(C(N)=O)C(=O)[C@@]3(O)C(O)=C1C2=O` [minocycline, minocycline hydrochloride], the maximum concentration (Cmax) in series [1] came to 17.4 ng/mL. In series [2] (Day 91), the “systemic exposure, dependence on sex” value is “independent of sex”. Further, the time to peak (Tmax) result in series [2] (Group 6, minocycline […] + adapalene […] FCD105 Foam, Day 1, minimum-maximum (median not reported)) was “(4-8) hr”; in series [2] (Group 6, minocycline […] + adapalene […] FCD105 Foam, Day 91, minimum-maximum (median not reported)), “(0-8) hr”; in series [2] (Göttingen, minipig, plasma, topical or ocular, […], Tmax, Group 4, minocycline […] + adapalene […] FCD105 Foam, Day 1, median) it was 4 h; in series [2] (Göttingen, minipig, plasma, topical or ocular, […], Tmax, Group 4, minocycline […] + adapalene […] FCD105 Foam, Day 91, median), 2 h; in series [2] (Göttingen, minipig, plasma, topical or ocular, […], Tmax, Group 5, minocycline […] + adapalene […] FCD105 Foam, Day 1, median), 24 h; in series [2] (Göttingen, minipig, plasma, topical or ocular, […], Tmax, Group 5, minocycline […] + adapalene […] FCD105 Foam, Day 91, median) it was 2 h.
On to `COc1ccc(-c2ccc3cc(C(=O)O)ccc3c2)cc1C12CC3CC(CC(C3)C1)C2` [adapalene], for which the “mean Cmax and AUC0-24hr for adapalene versus dose” value in series [2] (0.25 to […] adapalene with […] minocycline, Day 91) is given as “approximately dose proportional”. In addition, the “systemic exposure, dependence on sex” value in series [2] (Day 91) is given as “independent of sex”. Also, the Tmax result is “(0-8) hr” in series [2] (Group 3, adapalene […] alone, daily dermal, Day 91, minimum-maximum (median not reported)); “(8-24) hr” in series [2] (Group 4, adapalene […] + minocycline […] FCD105 Foam, Day 1, minimum-maximum (median not reported)); “(0-24) hr” in series [2] (Group 4, adapalene […] + minocycline […] FCD105 Foam, Day 91, minimum-maximum (median not reported)); 24 h in series [2] (Göttingen, minipig, plasma, topical or ocular, […], Tmax, Group 3, adapalene […] alone, daily dermal, Day 1, median); 24 h in series [2] (Göttingen, minipig, plasma, topical or ocular, […], Tmax, Group 5, adapalene […] + minocycline […] FCD105 Foam, Day 1, median); 1 h in series [2] (Göttingen, minipig, plasma, topical or ocular, […], Tmax, Group 5, adapalene […] + minocycline […] FCD105 Foam, Day 91, median). Also, the Tmax in series [2] (Göttingen, minipig, plasma, topical or ocular, […], Tmax, Group 6, adapalene […] + minocycline […] FCD105 Foam, Day 1, median) amounted to 24 h; in series [2] (Göttingen, minipig, plasma, topical or ocular, […], Tmax, Group 6, adapalene […] + minocycline […] FCD105 Foam, Day 91, median), 1 h.

For the origin of these results see patent US20250073251A1, “COMPOSITIONS AND METHODS AND USES THEREOF” (Journey Medical Corporation, priority 2019, published 2025).
